Measurements from ChEMBL document CHEMBL4007492, “Discovery of an Acrylic Acid Based Tetrahydroisoquinoline as an Orally Bioavailable Selective Estrogen Receptor Degrader for ERα+ Breast Cancer” (J Med Chem, 2017).
Values after ≈ are worked out from the molar mass of the structure shown. Each block holds one molecule with its values, some of them ahead of it.

Columns and labels:
Plasma [1] = experiment: Metabolic stability of the compound in C57BL/6 mouse plasma assessed as compound racemization rate at 5 uM after 4 hrs by UPLC analysis; format: ADME, cell-free
[2] = Stability of the compound in aqueous buffer assessed as compound racemization rate at 5 uM at pH 6.8 after 4 hrs by UPLC analysis; format: physicochemical; settings: pH 6.8, 4 h
Plasma [3] = experiment: Metabolic stability of the compound in cynomolgus monkey plasma assessed as compound racemization rate at 5 uM after 4 hrs by UPLC analysis; format: ADME, cell-free, Macaca fascicularis
Plasma [4] = experiment: Metabolic stability of the compound in Sprague Dawley rat plasma assessed as compound racemization rate at 5 uM after 4 hrs by UPLC analysis; format: ADME, cell-free
[5] = Stability of the compound in aqueous buffer assessed as compound racemization rate at 5 uM at pH 7.4 after 4 hrs by UPLC analysis; format: physicochemical; settings: pH 7.4, 4 h
Plasma [6] = experiment: Metabolic stability of the compound in Beagle dog plasma assessed as compound racemization rate at 5 uM after 4 hrs by UPLC analysis; format: ADME, cell-free, Canis lupus familiaris
[7] = Stability of the compound in methanol at room temperature assessed as compound racemization rate at 5 uM at pH 6.8 after 1 hr by UPLC analysis; format: physicochemical; settings: pH 6.8, 1 h
Plasma [8] = experiment: Metabolic stability of the compound in human plasma assessed as compound racemization rate at 5 uM after 4 hrs by UPLC analysis; format: ADME, cell-free
physchem = settings: buffer, pH 6.8
[9] = pampa, 4 h, 5 µM
Rattus norvegicus [10] = experiment: Dose normalized Cmax in Sprague-Dawley rat at 3 mg/kg, po administered as suspension measured up to 7 hrs by LC/MS/MS analysis; format: ADME, organism-based; settings: in vivo
Rattus norvegicus [11] = experiment: Dose normalized Cmax in Sprague-Dawley rat at 100 mg/kg, po administered as suspension measured up to 7 hrs by LC/MS/MS analysis; format: ADME, organism-based; settings: in vivo
Canis familiaris [12] = experiment: Clearance in Beagle dog at 10 mg/kg, po administered as solution measured up to 7 hrs by LC/MS/MS analysis relative to hepatic blood flow; format: ADME, organism-based, Canis lupus familiaris; settings: in vivo
Rattus norvegicus [13] = experiment: Dose normalized Cmax in Sprague-Dawley rat at 3 mg/kg, po administered as solution measured up to 7 hrs by LC/MS/MS analysis; format: ADME, organism-based; settings: in vivo
Rattus norvegicus [14] = experiment: Dose normalized AUC (0 to t) in Sprague-Dawley rat at 30 mg/kg, po administered as suspension measured up to 7 hrs by LC/MS/MS analysis; format: ADME, organism-based; settings: in vivo
[15] = Elimination half life in Beagle dog at 0.3 mg/kg, iv or 10 mg/kg, po administered as solution measured up to 7 hrs by LC/MS/MS analysis; format: ADME, organism-based, Canis lupus familiaris; settings: in vivo, read-out: beta t1/2 (converted)
Rattus norvegicus [16] = experiment: Clearance in Sprague-Dawley rat at 3 mg/kg, po administered as solution measured up to 7 hrs by LC/MS/MS analysis relative to hepatic blood flow; format: ADME, organism-based; settings: in vivo
Mus musculus [17] = species on record: Mus musculus; settings: in vivo, po, 3 mg/kg, 7 h
Rattus norvegicus [18] = experiment: Dose normalized AUC (0 to t) in Sprague-Dawley rat at 100 mg/kg, po administered as suspension measured up to 7 hrs by LC/MS/MS analysis; format: ADME, organism-based; settings: in vivo
[19] = Tmax in Sprague-Dawley rat at 3 mg/kg, po administered as solution measured up to 7 hrs by LC/MS/MS analysis; format: ADME, organism-based; settings: in vivo
in vivo [20] = settings: C57BL/6, mouse, po, 3 mg/kg
Rattus norvegicus [21] = experiment: Dose normalized AUC (0 to t) in Sprague-Dawley rat at 3 mg/kg, po administered as solution measured up to 7 hrs by LC/MS/MS analysis; format: ADME, organism-based; settings: in vivo
[22] = Tmax in Sprague-Dawley rat at 30 mg/kg, po administered as suspension measured up to 7 hrs by LC/MS/MS analysis; format: ADME, organism-based; settings: in vivo
Rattus norvegicus [23] = experiment: Dose normalized AUC (0 to t) in Sprague-Dawley rat at 1 mg/kg, iv administered as solution measured up to 7 hrs by LC/MS/MS analysis; format: ADME, organism-based; settings: in vivo
Mus musculus [24] = species on record: Mus musculus; settings: in vivo, po, 3 mg/kg
Canis familiaris [25] = experiment: Dose normalized AUC (0 to t) in Beagle dog at 0.3 mg/kg, iv administered as solution measured up to 7 hrs by LC/MS/MS analysis; format: ADME, organism-based, Canis lupus familiaris; settings: in vivo
[26] = Tmax in Sprague-Dawley rat at 3 mg/kg, po administered as suspension measured up to 7 hrs by LC/MS/MS analysis; format: ADME, organism-based; settings: in vivo
[27] = Clearance in Beagle dog at 10 mg/kg, po administered as solution measured up to 7 hrs by LC/MS/MS analysis; format: ADME, organism-based, Canis lupus familiaris; settings: in vivo
Mus musculus [28] = species on record: Mus musculus; settings: in vivo, iv, 1 mg/kg
Rattus norvegicus [29] = experiment: Dose normalized AUC (0 to t) in Sprague-Dawley rat at 3 mg/kg, po administered as suspension measured up to 7 hrs by LC/MS/MS analysis; format: ADME, organism-based; settings: in vivo
Rattus norvegicus [30] = experiment: Dose normalized Cmax in Sprague-Dawley rat at 30 mg/kg, po administered as suspension measured up to 7 hrs by LC/MS/MS analysis; format: ADME, organism-based; settings: in vivo
in vivo [31] = settings: C57BL/6, mouse, iv, 1 mg/kg
[32] = Oral bioavailability in Beagle dog at 10 mg/kg administered as solution measured up to 7 hrs by LC/MS/MS analysis; format: ADME, organism-based, Canis lupus familiaris; settings: in vivo
[33] = Oral bioavailability in Sprague-Dawley rat at 3 mg/kg administered as solution measured up to 7 hrs by LC/MS/MS analysis; format: ADME, organism-based; settings: in vivo
[34] = Tmax in Sprague-Dawley rat at 100 mg/kg, po administered as suspension measured up to 7 hrs by LC/MS/MS analysis; format: ADME, organism-based; settings: in vivo
[35] = Elimination half life in Sprague-Dawley rat at 1 mg/kg, iv or 3 mg/kg, po administered as solution measured up to 7 hrs by LC/MS/MS analysis; format: ADME, organism-based; settings: in vivo, read-out: beta t1/2 (converted)
[36] = Clearance in Sprague-Dawley rat at 3 mg/kg, po administered as solution measured up to 7 hrs by LC/MS/MS analysis; format: ADME, organism-based; settings: in vivo
Canis familiaris [37] = experiment: Dose normalized AUC (0 to t) in Beagle dog at 10 mg/kg, po administered as solution measured up to 7 hrs by LC/MS/MS analysis; format: ADME, organism-based, Canis lupus familiaris; settings: in vivo
Canis familiaris [38] = experiment: Dose normalized Cmax in Beagle dog at 10 mg/kg, po administered as solution measured up to 7 hrs by LC/MS/MS analysis; format: ADME, organism-based, Canis lupus familiaris; settings: in vivo
[39] = Tmax in Beagle dog at 10 mg/kg, po administered as solution measured up to 7 hrs by LC/MS/MS analysis; format: ADME, organism-based, Canis lupus familiaris; settings: in vivo
in vivo [40] = settings: C57BL/6, mouse

Drug metabolism (Plasma [1]): Metabolite_Detected | Drug metabolism [2]: Metabolite_Detected | Drug metabolism (Plasma [3]): Metabolite_Detected | Drug metabolism (Plasma [4]): Metabolite_Detected | Drug metabolism [5]: Metabolite_Detected | Drug metabolism (Plasma [6]): Metabolite_Detected | Drug metabolism [7]: Metabolite_Detected | Drug metabolism (Plasma [8]): Metabolite_Detected
SMILES: CC(C)c1ccc(N2CCc3cc(O)ccc3[C@]2(C)c2ccc(/C=C/C(=O)O)cc2)cc1

SMILES: CC1(c2ccc(/C=C/C(=O)NCC(F)F)cc2)c2ccc(O)cc2CCN1c1ccc(F)cc1 (stereo not drawn)
solubility at 16 h (physchem): < 5 µM | log(permeability) [9]: -4.2

Cmax/dose (Rattus norvegicus [10]): 602 nM | Cmax/dose (Rattus norvegicus [11]): 202 nM | CL (Canis familiaris [12]): 7% | Cmax/dose (Rattus norvegicus [13]): 1199 nM | AUCt/dose (Rattus norvegicus [14]): 1125 nM·h/mg | half-life [15]: 5 h | CL (Rattus norvegicus [16]): 27% | Cmax/dose (Mus musculus [17]): 2621 nM | AUCt/dose (Rattus norvegicus [18]): 918 nM·h/mg | Tmax [19]: 0.3 h | bioavailability at 7 h (in vivo [20]): 78% | AUCt/dose (Rattus norvegicus [21]): 1586 nM·h/mg | Tmax [22]: 2 h | AUCt/dose (Rattus norvegicus [23]): 2627 nM·h/mg | AUC/dose (Mus musculus [24]): 4533 nM·h/mg | AUCt/dose (Canis familiaris [25]): 14347 nM·h/mg | Tmax [26]: 0.3 h | CL/F [27]: 2.3 mL/min/kg | solubility at 16 h (physchem): 94 µM (≈ 40.2 µg/mL) | log(permeability) [9]: -4.1 | AUC/dose (Mus musculus [28]): 5808 nM·h/mg | AUCt/dose (Rattus norvegicus [29]): 955 nM·h/mg | Cmax/dose (Rattus norvegicus [30]): 346 nM | clearance at 7 h (in vivo [31]): 7 mL/min/kg | bioavailability [32]: 56% | bioavailability [33]: 60% | Tmax [34]: 1.5 h | half-life [35]: 0.8 h | CL/F [36]: 14.9 mL/min/kg | AUCt/dose (Canis familiaris [37]): 7994 nM·h/mg | Cmax/dose (Canis familiaris [38]): 1311 nM | Tmax [39]: 1.2 h | half-life at 7 h (in vivo [40]): 1.1 h
SMILES: CC(C)c1ccc(N2CCc3cc(O)ccc3C2(C)c2ccc(/C=C/C(=O)O)cc2)cc1 (stereo not drawn)

SMILES: CC1(c2ccc(/C=C/C(=O)O)cc2)c2ccc(O)cc2CCN1c1cccc(F)c1 (stereo not drawn)
solubility at 16 h (physchem): 561 µM (≈ 226 µg/mL) | log(permeability) [9]: -4.3

Drug metabolism (Plasma [1]): Metabolite_Detected | Drug metabolism [2]: Metabolite_Detected | Drug metabolism (Plasma [3]): Metabolite_Detected | Drug metabolism (Plasma [4]): Metabolite_Detected | Drug metabolism [5]: Metabolite_Detected | Drug metabolism (Plasma [6]): Metabolite_Detected | Drug metabolism [7]: Metabolite_Detected | Drug metabolism (Plasma [8]): Metabolite_Detected
SMILES: CC(C)c1ccc(N2CCc3cc(O)ccc3[C@@]2(C)c2ccc(/C=C/C(=O)O)cc2)cc1
